Laboratory results: US20140303116A1, “CARNOSINE HYALURONIC ACID MIXTURES AND THEIR USE” (priority 2010, published 2014)

How the values were obtained:
[1] = test system: skin fibroblasts; assay: scratch assay, migration of skin fibroblasts; format: cell-based; conditions: 48 hours of treatment after scratching; doses of between 0.2 and 0.8%; mitomycin C pre-treated cells, DMEM with 10% FCS
Method: The solutions obtained from Examples 2 and 3 were used to prepare dilute […], and these solutions, whose pH initially changed from 3 to 1.5, were neutralized by the addition of NaOH.
The effect of the above solutions on the migration of skin fibroblasts was tested in vitro by means of a scratch assay. In this test, cells mimic cell migration during an in vivo tissue repair.
The method is based on scratch-wounding a confluent monolayer of cells so that the cells capable of migration are stimulated to cover the artificial gap in an attempt to re-establish new cell-to-cell contacts. […]
In this assay, the fibroblasts were scratch-wounded and then treated with the test substances at different concentrations. At 48 hours after treatment, cells were photographed and stained with crystal violet, and the migrated cells were counted under an optical microscope. […]
Cells were cultivated in DMEM with 10% FCS and treated with the dilute solutions of L-carnosine hyaluronate as described above for 48 hours after scratching. […] Cells were counted after staining with crystal violet.
Cells were cultivated in DMEM with 10% FCS and treated with the dilute solutions of D-carnosine hyaluronate as described above for 48 hours after scratching. […] Cells were counted after staining with crystal violet.

[2] = test system: collagen III; assay: collagen III expression in fibroblasts by Western blotting; format: cell-based; conditions: fibroblasts exposed to 1.0 and 1.5% for 48 hours, beta-actin internal control
Method: The effect of solutions diluted to 1% and 1.5% and neutralized according to Example 4 on the production of collagen by fibroblasts treated with these solutions was verified.
The Western blotting technique was used to verify any production of collagen by the fibroblasts treated with L- and D-carnosine hyaluronate for 48 hours.
Fibroblast cultures were lysed with RIPA buffer at pH 7.4. Then, the samples were run onto a 10% SDS-polyacrylamide gel under reducing conditions. When the run has been completed, the proteins were transferred onto nitrocellulose membranes, incubated with anti-collagen III antibodies and then with the secondary antibody. […] The beta-actin expression was used as an internal control.

Question: With L-carnosine hyaluronate as the substance, how does the “migration of skin fibroblasts (migrated cell count)” value [1] read?
Answer: The value was “statistically significantly migrate”.

Question: And the “collagen III synthesis vs control cells treated with saline” value [2]?
Answer: Its value is “synthesize more collagen III than control cells”.

Question: Which “migration of skin fibroblasts (migrated cell count)” value [1] does the source give for D-carnosine hyaluronate here?
Answer: The value was “statistically significantly migrate”.

Question: And the “collagen III synthesis vs control cells treated with saline” value [2]?
Answer: Its value is “synthesize more collagen III than control cells”.
